Source: patent US20260315431A1, “NANOMATERIAL ENCAPSULATED BIOFILM INHIBITORS FOR DENTAL CARIES TREATMENT” (THE UAB RESEARCH FOUNDATION, priority 2023, published 2026)
Like-named read-outs stand apart in the source and are kept apart here.

Tested on: S. mutans Gtfs
Test: Gtf inhibition determined by glucan quantification
Assay type: biochemical, Streptococcus mutans
Details: role: inhibitor
Source text: The interspecies co-adherence between S. mutans and other microorganisms in the oral cavity is critical for biofilm formation and cariogenicity. Though the mechanisms of such adhesions and co-aggregations are not fully elucidated, it is believed that the extracellular polysaccharide (EPS) matrix of S. mutans has an important role in this process^49, 50. It is reported that glucans synthesized by Gtfs when incorporated into the tooth pellicle to provide enhanced binding sites for other microorganisms to form stable and persistent microcolonies, which provides mechanical stability to the EPS matrix^50, 51. Therefore, Gtf inhibition assays were performed to assess the ability of HA5 to inhibit the Gtfs and glucan production using a reported procedure and IC50 value was calculated^52.
HA5 is a polyhydroxy compound that contains a Michael acceptor functionality which raises concerns about non-specific and covalent binding.
Gtf inhibition determined by glucan quantification assays. Overnight cultures of S. mutans UA159 were centrifuged (6500 rpm, 4° C., 10 min) to remove cells. Supernatant was mixed with ethanol (1:1) and incubated at −80° C. for 1 h. The precipitated Gtfs were palleted using centrifugation and resuspended in chemically defined media (CDM) 10 μL of Gtfs suspended in CDM were assayed on Ibidi slides with varying concentrations of inhibitor, 1% sucrose, 1% DMSO and 1 μM Cascade blue dye in CDM. The slides were then incubated at 37° C. with 5% CO2 for 16 h after which, the wells of Ibidi slides were gently rinsed with 1×PBS and treated with 1×PBS for fluorescence microscopy imaging. The images obtained were processed in ImageJ to quantify glucans and graphed in GraphPad Prism.
Gtf inhibition assays were performed to assess the ability of HA6 to inhibit the Gtfs and glucan production using a reported procedure and IC50 value was calculated^[44, 45] Overnight cultures of S. mutans UA159 were centrifuged (6500 rpm, 4° C., 10 min) to remove the cells. Supernatant was mixed with ethanol (1:1) and incubated at −80° C. for 1 h. The precipitated Gtfs were palleted using centrifugation and resuspended in CDM (1 mL). 10 μL of Gtfs suspension in CDM was assayed on Ibidi slides with varying concentrations of PEHA5 or HA6, 1% sucrose, 1% DMSO and 1 μM Cascade blue dextran conjugated dye in CDM. The slides were then incubated at 37° C. with 5% CO2 for 16 h after which, the wells of Ibidi slides were gently rinsed with 1×PBS and imaged using fluorescence microscopy. The images obtained were processed in ImageJ to quantify glucans and graphed in GraphPad Prism 10.0.2.

O=C1/C(=C/c2cc(O)c(O)cc2O)Oc2ccccc21 [HA5, 2-[(2′,4′,5′-Trihydroxyphenyl)methylidene]-2,3-dihydro-1-benzofuran-3-one]
IC50 (1% sucrose, 1% DMSO, no BME or Triton-X-100, read-out: Gtf inhibition (glucan production) IC50): 10.6 µM | IC50 (no BME, unit M, read-out: Gtf inhibition (glucan production) IC50): 10.6 µM | IC50 (with beta-mercaptoethanol 1 mM, read-out: Gtf inhibition IC50 in the presence of BME): 7.84 µM | IC50 (with detergent Triton-X-100, read-out: Gtf inhibition IC50 in the presence of Triton-X-100): 5.16 µM
